Data from ChEMBL document CHEMBL1135517, “N(6)-alkyl-2-alkynyl derivatives of adenosine as potent and selective agonists at the human adenosine A(3) receptor and a starting point for searching A(2B) ligands” (J Med Chem, 2002).

Assays:
[1] = biological target: T1, Adenosine receptor A1 (Homo sapiens, UniProt P30542); assay: Binding affinity against Human recombinant Adenosine A1 receptor stably transfected in CHO cells using [3H]CCPA as radioligand; assay type: cell-based
T1 sequence (P30542 whole entry): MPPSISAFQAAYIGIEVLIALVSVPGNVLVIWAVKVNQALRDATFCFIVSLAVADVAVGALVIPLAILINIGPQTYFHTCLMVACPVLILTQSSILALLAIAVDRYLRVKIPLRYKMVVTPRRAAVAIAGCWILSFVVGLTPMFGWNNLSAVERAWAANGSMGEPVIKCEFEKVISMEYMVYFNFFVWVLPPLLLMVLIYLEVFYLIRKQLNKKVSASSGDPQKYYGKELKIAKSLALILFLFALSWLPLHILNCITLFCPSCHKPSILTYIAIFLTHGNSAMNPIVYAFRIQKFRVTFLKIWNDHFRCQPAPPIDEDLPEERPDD

[2] = biological target: Adenosine receptor A2a (Homo sapiens, UniProt P29274); assay: Binding affinity against Human recombinant Adenosine A2A receptor stably transfected in CHO cells using [3H]NECA as radioligand; assay type: cell-based
Sequence of Adenosine receptor A2a (P29274 whole entry): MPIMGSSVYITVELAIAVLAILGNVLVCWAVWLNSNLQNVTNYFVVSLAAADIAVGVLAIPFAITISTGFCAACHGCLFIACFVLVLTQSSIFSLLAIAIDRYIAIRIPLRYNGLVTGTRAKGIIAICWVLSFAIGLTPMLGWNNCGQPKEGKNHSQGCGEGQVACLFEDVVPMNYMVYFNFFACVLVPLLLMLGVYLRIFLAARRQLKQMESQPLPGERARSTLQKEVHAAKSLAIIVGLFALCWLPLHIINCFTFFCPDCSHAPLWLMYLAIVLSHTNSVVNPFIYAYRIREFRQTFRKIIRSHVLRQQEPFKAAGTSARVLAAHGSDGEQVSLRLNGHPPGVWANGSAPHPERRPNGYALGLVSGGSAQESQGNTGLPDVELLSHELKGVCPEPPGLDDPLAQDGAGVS

[3] = biological target: T2, Adenosine receptor A2b (Homo sapiens, UniProt P29275); assay: Receptor-stimulated activity in CHO cells stably transfected with Human recombinant Adenosine A2B receptor measuring adenylyl cyclase activity
T2 sequence (P29275 whole entry): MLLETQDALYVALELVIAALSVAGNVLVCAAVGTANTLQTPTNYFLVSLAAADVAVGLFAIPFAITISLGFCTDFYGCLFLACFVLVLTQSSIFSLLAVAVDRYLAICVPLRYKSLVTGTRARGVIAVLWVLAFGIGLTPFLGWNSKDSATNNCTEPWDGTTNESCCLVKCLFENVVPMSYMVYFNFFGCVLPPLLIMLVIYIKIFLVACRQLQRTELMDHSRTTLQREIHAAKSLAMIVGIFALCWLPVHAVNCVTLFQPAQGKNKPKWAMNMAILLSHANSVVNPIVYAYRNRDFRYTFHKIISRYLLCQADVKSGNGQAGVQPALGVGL

[4] = biological target: T3, Adenosine receptor A3 (Homo sapiens, UniProt P0DMS8); assay: Binding affinity against Human recombinant Adenosine A3 receptor stably transfected in CHO cells using [3H]NECA as radioligand; assay type: cell-based
T3 sequence (P0DMS8 whole entry): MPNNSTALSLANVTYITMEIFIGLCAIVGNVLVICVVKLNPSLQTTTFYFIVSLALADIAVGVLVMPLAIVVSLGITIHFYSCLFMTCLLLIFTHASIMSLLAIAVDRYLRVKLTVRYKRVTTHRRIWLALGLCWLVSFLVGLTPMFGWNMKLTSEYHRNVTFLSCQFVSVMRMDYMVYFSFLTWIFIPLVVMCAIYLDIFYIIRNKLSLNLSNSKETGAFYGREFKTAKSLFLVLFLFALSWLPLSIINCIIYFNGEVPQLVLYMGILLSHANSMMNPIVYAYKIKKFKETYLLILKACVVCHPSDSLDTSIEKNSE

Row | SMILES | Ki [1] | Ki [2] | EC50 [3] | Ki [4]
1 | CC(C)Nc1nc(C#Cc2ccccc2)nc2c1ncn2[C@@H]1O[C@H](CO)[C@@H](O)[C@H]1O | 429 nM | 1100 nM | > 100000 nM | 17 nM
2 | CCNC(=O)[C@H]1O[C@@H](n2cnc3c(N)nc(C#Cc4ccccc4)nc32)[C@H](O)[C@@H]1O | 560 nM | 620 nM | > 100000 nM | 6.2 nM
3 | CCCCC#Cc1nc(NC)c2ncn([C@@H]3O[C@H](CO)[C@@H](O)[C@H]3O)c2n1 | 327 nM | 1230 nM | 100000 nM | 1.1 nM
4 | CCCCC#Cc1nc(NC(C)C)c2ncn([C@@H]3O[C@H](CO)[C@@H](O)[C@H]3O)c2n1 | 43 nM | 196 nM | 100000 nM | 9.7 nM
5 | CCCCC#Cc1nc(N)c2ncn([C@@H]3O[C@H](CO)[C@@H](O)[C@H]3O)c2n1 |  |  | 100000 nM | 4.7 nM
6 | Nc1nc(C#Cc2ccccc2)nc2c1ncn2[C@@H]1O[C@H](CO)[C@@H](O)[C@H]1O | 391 nM | 363 nM | > 100000 nM | 16 nM
7 | Nc1nc(C#C[C@H](O)c2ccccc2)nc2c1ncn2[C@@H]1O[C@H](CO)[C@@H](O)[C@H]1O | 0.44 nM | 29 nM | 6200 nM | 5 nM
8 | CCNc1nc(C#C[C@H](O)c2ccccc2)nc2c1ncn2[C@@H]1O[C@H](CO)[C@@H](O)[C@H]1O | 2.2 nM | 1180 nM | 9100 nM | 1.4 nM
9 | CNc1nc(C#C[C@H](O)c2ccccc2)nc2c1ncn2[C@@H]1O[C@H](CO)[C@@H](O)[C@H]1O | 7.1 nM | 1560 nM | 100000 nM | 1.2 nM
10 | CCCCC#Cc1nc(NCC)c2ncn([C@@H]3O[C@H](CO)[C@@H](O)[C@H]3O)c2n1 | 138 nM | 267 nM | 100000 nM | 2.3 nM
11 | CC(C)Nc1nc(C#C[C@H](O)c2ccccc2)nc2c1ncn2[C@@H]1O[C@H](CO)[C@@H](O)[C@H]1O | 1.1 nM | 324 nM | 8900 nM | 4.9 nM
12 | CNc1nc(C#Cc2ccccc2)nc2c1ncn2[C@@H]1O[C@H](CO)[C@@H](O)[C@H]1O | 1690 nM | 8530 nM | 100000 nM | 3.4 nM
13 | CCNc1nc(C#Cc2ccccc2)nc2c1ncn2C1O[C@H](CO)[C@@H](O)[C@H]1O (some centres not stated) | 1180 nM | 4450 nM | > 100000 nM | 4.9 nM

Continued by falling EC50 [3], values first:

Row | Ki [1] | Ki [2] | EC50 [3] | Ki [4] | SMILES
14 | 1.5 nM | 96 nM | 6100 nM | 2.3 nM | CC(C)Nc1nc(C#CC(O)c2ccccc2)nc2c1ncn2[C@@H]1O[C@H](CO)[C@@H](O)[C@H]1O (some centres not stated)
15 | 60 nM |  | 6100 nM | 2.4 nM | CC(C)(C)OC(=O)C1CCCN1C[C@@H](O)[C@H](Cc1ccccc1)NC(=O)[C@H](CC(N)=O)NC(=O)OCc1ccccc1 (some centres not stated)
16 | 8.4 nM | 273 nM | 2700 nM | 0.76 nM | CNc1nc(C#CC(O)c2ccccc2)nc2c1ncn2[C@@H]1O[C@H](CO)[C@@H](O)[C@H]1O (some centres not stated)
17 | 9.6 nM | 163 nM | 2600 nM | 0.53 nM | CNc1nc(C#C[C@@H](O)c2ccccc2)nc2c1ncn2[C@@H]1O[C@H](CO)[C@@H](O)[C@H]1O
18 | 0.67 nM | 7 nM | 2400 nM | 3.3 nM | Nc1nc(C#CC(O)c2ccccc2)nc2c1ncn2[C@@H]1O[C@H](CO)[C@@H](O)[C@H]1O (some centres not stated)
19 | 1.9 nM | 39 nM | 2400 nM | 5.5 nM | CCNC(=O)[C@H]1O[C@@H](n2cnc3c(N)nc(C#C[C@H](O)c4ccccc4)nc32)[C@H](O)[C@@H]1O
20 | 2.7 nM | 94 nM | 1700 nM | 0.97 nM | CCNc1nc(C#CC(O)c2ccccc2)nc2c1ncn2[C@@H]1O[C@H](CO)[C@@H](O)[C@H]1O (some centres not stated)
21 | 2.7 nM | 3.1 nM | 1100 nM | 0.42 nM | CCNC(=O)[C@H]1O[C@@H](n2cnc3c(N)nc(C#CC(O)c4ccccc4)nc32)[C@H](O)[C@@H]1O (mixture of isomers)
22 | 1.7 nM | 43 nM | 960 nM | 1.5 nM | CC(C)Nc1nc(C#C[C@@H](O)c2ccccc2)nc2c1ncn2[C@@H]1O[C@H](CO)[C@@H](O)[C@H]1O
23 | 0.67 nM | 1.8 nM | 920 nM | 1.4 nM | Nc1nc(C#C[C@@H](O)c2ccccc2)nc2c1ncn2[C@@H]1O[C@H](CO)[C@@H](O)[C@H]1O
24 | 3.4 nM | 64 nM | 730 nM | 0.2 nM | CCNc1nc(C#C[C@@H](O)c2ccccc2)nc2c1ncn2[C@@H]1O[C@H](CO)[C@@H](O)[C@H]1O
25 | 2.1 nM | 2 nM | 220 nM | 0.75 nM | CCNC(=O)[C@H]1O[C@@H](n2cnc3c(N)nc(C#C[C@@H](O)c4ccccc4)nc32)[C@H](O)[C@@H]1O
